Reference: article PMC6537165 (Slas Discovery, 2019)

Test system: Wolbachia pipientis (wAlbB) in C6/36 (wAlbB) cells
Assay: acumen high-throughput anti-Wolbachia assay
Assay type: cell-based
Details: C6/36, 168 h, read-out: anti-Wolbachia IC50 in the acumen assay

IC50: 0.0178 µM
Structure (SMILES): C[C@H]1c2cccc(O)c2C(=O)C2=C(O)[C@]3(O)C(=O)C(C(N)=O)=C(O)[C@@H](N(C)C)[C@@H]3[C@@H](O)[C@@H]21 [Doxycycline, doxycycline]
